{
  "source": "the supplement of paper PMC10307832",
  "test_in_all_cases": "relative viability (nuclei count vs DMSO), 5 days (fraction); higher = more cells survive",
  "key": {"[1]": {"system": "IA-LM", "in_short": "(§1)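 Lung cancer cell lines in 1536-well plates were dosed by pin tool the day after seeding, either with one drug alone or with a fixed anchor-drug dose plus five library-drug doses (not always all listed) in √10 steps. After 5 days, cells were fixed and their nuclei stained in one step (final 0.05% Triton X-100, 1% formaldehyde, 1 ug/ml Hoechst), then counted on 4× images. Relative viability is the nuclei count in treated wells divided by that in vehicle wells. Values are medians of duplicate plates.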"}, "[2]": {"system": "NCI-H661", "in_short": "as §1"}, "[3]": {"system": "SK-LU-1", "in_short": "as §1"}, "[4]": {"system": "NCI-H596", "in_short": "as §1"}, "[5]": {"system": "NCI-H1666", "in_short": "as §1"}, "[6]": {"system": "NCI-H1944", "in_short": "as §1"}, "[7]": {"system": "NCI-H1703", "in_short": "as §1"}, "[8]": {"system": "A549", "in_short": "as §1"}, "[9]": {"system": "NCI-H1299", "in_short": "as §1"}, "[10]": {"system": "EBC-1", "in_short": "as §1"}, "[11]": {"system": "PC-14", "in_short": "as §1"}, "[12]": {"system": "Calu-6", "in_short": "as §1"}},
  "data": [
    {"smiles": "Nc1cccc2c1CN(C1CCC(=O)NC1=O)C2=O", "note": "(stereo unspecified) [Lenalidomide] + CS(=O)(=O)CCNCc1ccc(-c2ccc3ncnc(Nc4ccc(OCc5cccc(F)c5)c(Cl)c4)c3c2)o1 [Lapatinib] (partner 2 µM)", "values": [
      {"measurement": "relative viability", "setting": "[1]; first compound 0.253 µM", "result": 0.647},
      {"measurement": "relative viability", "setting": "[1]; first compound 0.8 µM", "result": 0.557},
      {"measurement": "relative viability", "setting": "[1]; first compound 2.53 µM", "result": 0.613},
      {"measurement": "relative viability", "setting": "[1]; first compound 8 µM", "result": 0.532},
      {"measurement": "relative viability", "setting": "[2]; first compound 0.253 µM", "result": 0.428},
      {"measurement": "relative viability", "setting": "[2]; first compound 0.8 µM", "result": 0.501},
      {"measurement": "relative viability", "setting": "[2]; first compound 2.53 µM", "result": 0.479},
      {"measurement": "relative viability", "setting": "[2]; first compound 8 µM", "result": 0.495},
      {"measurement": "relative viability", "setting": "[3]; first compound 0.253 µM", "result": 0.804},
      {"measurement": "relative viability", "setting": "[3]; first compound 0.8 µM", "result": 0.891},
      {"measurement": "relative viability", "setting": "[3]; first compound 2.53 µM", "result": 1.11},
      {"measurement": "relative viability", "setting": "[3]; first compound 8 µM", "result": 0.889},
      {"measurement": "relative viability", "setting": "[4]; first compound 0.253 µM", "result": 1.14},
      {"measurement": "relative viability", "setting": "[4]; first compound 0.8 µM", "result": 0.919},
      {"measurement": "relative viability", "setting": "[4]; first compound 2.53 µM", "result": 1.1},
      {"measurement": "relative viability", "setting": "[4]; first compound 8 µM", "result": 0.995},
      {"measurement": "relative viability", "setting": "[5]; first compound 0.253 µM", "result": 0.788},
      {"measurement": "relative viability", "setting": "[5]; first compound 0.8 µM", "result": 0.295},
      {"measurement": "relative viability", "setting": "[5]; first compound 2.53 µM", "result": 0.847},
      {"measurement": "relative viability", "setting": "[5]; first compound 8 µM", "result": 0.513},
      {"measurement": "relative viability", "setting": "[6]; first compound 0.253 µM", "result": 0.932},
      {"measurement": "relative viability", "setting": "[6]; first compound 0.8 µM", "result": 0.59},
      {"measurement": "relative viability", "setting": "[6]; first compound 2.53 µM", "result": 0.754},
      {"measurement": "relative viability", "setting": "[6]; first compound 8 µM", "result": 0.602},
      {"measurement": "relative viability", "setting": "[7]; first compound 0.253 µM", "result": 1.06},
      {"measurement": "relative viability", "setting": "[7]; first compound 0.8 µM", "result": 1.78},
      {"measurement": "relative viability", "setting": "[7]; first compound 2.53 µM", "result": 1.42},
      {"measurement": "relative viability", "setting": "[7]; first compound 8 µM", "result": 1.24},
      {"measurement": "relative viability", "setting": "[8]; first compound 0.253 µM", "result": 1.06},
      {"measurement": "relative viability", "setting": "[8]; first compound 0.8 µM", "result": 1.09},
      {"measurement": "relative viability", "setting": "[8]; first compound 2.53 µM", "result": 0.972},
      {"measurement": "relative viability", "setting": "[8]; first compound 8 µM", "result": 1.02},
      {"measurement": "relative viability", "setting": "[9]; first compound 0.253 µM", "result": 0.961},
      {"measurement": "relative viability", "setting": "[9]; first compound 0.8 µM", "result": 0.873},
      {"measurement": "relative viability", "setting": "[9]; first compound 2.53 µM", "result": 0.948},
      {"measurement": "relative viability", "setting": "[9]; first compound 8 µM", "result": 1.01},
      {"measurement": "relative viability", "setting": "[10]; first compound 0.253 µM", "result": 0.211},
      {"measurement": "relative viability", "setting": "[10]; first compound 0.8 µM", "result": 0.205},
      {"measurement": "relative viability", "setting": "[10]; first compound 2.53 µM", "result": 0.217},
      {"measurement": "relative viability", "setting": "[10]; first compound 8 µM", "result": 0.235},
      {"measurement": "relative viability", "setting": "[11]; first compound 0.253 µM", "result": 0.294},
      {"measurement": "relative viability", "setting": "[11]; first compound 0.8 µM", "result": 0.32},
      {"measurement": "relative viability", "setting": "[11]; first compound 2.53 µM", "result": 0.4},
      {"measurement": "relative viability", "setting": "[11]; first compound 8 µM", "result": 0.302},
      {"measurement": "relative viability", "setting": "[12]; first compound 0.253 µM", "result": 0.971},
      {"measurement": "relative viability", "setting": "[12]; first compound 0.8 µM", "result": 1.09},
      {"measurement": "relative viability", "setting": "[12]; first compound 2.53 µM", "result": 1.17},
      {"measurement": "relative viability", "setting": "[12]; first compound 8 µM", "result": 1.13}
    ]},
    {"smiles": "Nc1cccc2c1CN(C1CCC(=O)NC1=O)C2=O", "note": "(stereo unspecified) [Lenalidomide] + Cc1nc(NC(=O)N2CCC[C@H]2C(N)=O)sc1-c1ccnc(C(C)(C)C(F)(F)F)c1 [Alpelisib] (partner 2 µM)", "values": [
      {"measurement": "relative viability", "setting": "[1]; first compound 0.253 µM", "result": 0.716},
      {"measurement": "relative viability", "setting": "[1]; first compound 0.8 µM", "result": 0.735},
      {"measurement": "relative viability", "setting": "[1]; first compound 2.53 µM", "result": 0.797},
      {"measurement": "relative viability", "setting": "[1]; first compound 8 µM", "result": 0.75},
      {"measurement": "relative viability", "setting": "[2]; first compound 0.253 µM", "result": 0.957},
      {"measurement": "relative viability", "setting": "[2]; first compound 0.8 µM", "result": 0.447},
      {"measurement": "relative viability", "setting": "[2]; first compound 2.53 µM", "result": 0.458},
      {"measurement": "relative viability", "setting": "[2]; first compound 8 µM", "result": 0.544},
      {"measurement": "relative viability", "setting": "[3]; first compound 0.253 µM", "result": 0.913},
      {"measurement": "relative viability", "setting": "[3]; first compound 0.8 µM", "result": 0.999},
      {"measurement": "relative viability", "setting": "[3]; first compound 2.53 µM", "result": 1.29},
      {"measurement": "relative viability", "setting": "[3]; first compound 8 µM", "result": 1.07},
      {"measurement": "relative viability", "setting": "[4]; first compound 0.253 µM", "result": 0.574},
      {"measurement": "relative viability", "setting": "[4]; first compound 0.8 µM", "result": 0.452},
      {"measurement": "relative viability", "setting": "[4]; first compound 2.53 µM", "result": 0.481},
      {"measurement": "relative viability", "setting": "[4]; first compound 8 µM", "result": 0.497},
      {"measurement": "relative viability", "setting": "[5]; first compound 0.253 µM", "result": 1.04},
      {"measurement": "relative viability", "setting": "[5]; first compound 0.8 µM", "result": 0.83},
      {"measurement": "relative viability", "setting": "[5]; first compound 2.53 µM", "result": 0.882},
      {"measurement": "relative viability", "setting": "[5]; first compound 8 µM", "result": 1.04},
      {"measurement": "relative viability", "setting": "[6]; first compound 0.253 µM", "result": 0.885},
      {"measurement": "relative viability", "setting": "[6]; first compound 0.8 µM", "result": 0.934},
      {"measurement": "relative viability", "setting": "[6]; first compound 2.53 µM", "result": 0.897},
      {"measurement": "relative viability", "setting": "[6]; first compound 8 µM", "result": 0.654},
      {"measurement": "relative viability", "setting": "[7]; first compound 0.253 µM", "result": 0.253},
      {"measurement": "relative viability", "setting": "[7]; first compound 0.8 µM", "result": 0.276},
      {"measurement": "relative viability", "setting": "[7]; first compound 2.53 µM", "result": 0.366},
      {"measurement": "relative viability", "setting": "[7]; first compound 8 µM", "result": 0.354},
      {"measurement": "relative viability", "setting": "[8]; first compound 0.253 µM", "result": 0.789},
      {"measurement": "relative viability", "setting": "[8]; first compound 0.8 µM", "result": 0.765},
      {"measurement": "relative viability", "setting": "[8]; first compound 2.53 µM", "result": 0.813},
      {"measurement": "relative viability", "setting": "[8]; first compound 8 µM", "result": 0.702},
      {"measurement": "relative viability", "setting": "[9]; first compound 0.253 µM", "result": 1.03},
      {"measurement": "relative viability", "setting": "[9]; first compound 0.8 µM", "result": 1.1},
      {"measurement": "relative viability", "setting": "[9]; first compound 2.53 µM", "result": 1.06},
      {"measurement": "relative viability", "setting": "[9]; first compound 8 µM", "result": 1.09},
      {"measurement": "relative viability", "setting": "[10]; first compound 0.253 µM", "result": 0.787},
      {"measurement": "relative viability", "setting": "[10]; first compound 0.8 µM", "result": 0.798},
      {"measurement": "relative viability", "setting": "[10]; first compound 2.53 µM", "result": 0.907},
      {"measurement": "relative viability", "setting": "[10]; first compound 8 µM", "result": 1.01},
      {"measurement": "relative viability", "setting": "[11]; first compound 0.253 µM", "result": 0.899},
      {"measurement": "relative viability", "setting": "[11]; first compound 0.8 µM", "result": 0.93},
      {"measurement": "relative viability", "setting": "[11]; first compound 2.53 µM", "result": 0.982},
      {"measurement": "relative viability", "setting": "[11]; first compound 8 µM", "result": 0.9},
      {"measurement": "relative viability", "setting": "[12]; first compound 0.253 µM", "result": 0.945},
      {"measurement": "relative viability", "setting": "[12]; first compound 0.8 µM", "result": 0.946},
      {"measurement": "relative viability", "setting": "[12]; first compound 2.53 µM", "result": 1.08},
      {"measurement": "relative viability", "setting": "[12]; first compound 8 µM", "result": 1.02}
    ]}
  ]
}
